Assay [1] concerns Felis catus. The assay is described as follows: Maximum irritation of cat eyes after topical administration of 5 ug of the compound. The format is functional.
Assay [2] relates to Monkey. As to the kind of experiment: Maximum reduction of the intraocular pressure in normotensive monkeys after topical administration of 3 ug of the compound. The format is functional, Cercopithecidae, Eye.
Assay [3] deals with Felis catus. As to the kind of experiment: Maximum irritation of cat eyes after topical administration of 3 ug of the compound. It counts as functional.
The species entered for assay [4] is Felis catus. The assay is described as follows: Compound concentration which had a contractile effect on iris sphincter muscle of cats. It counts as functional.

In the case of `CC(C)OC(=O)CCC/C=C\C[C@@H]1[C@@H](/C=C/[C@@H](O)CCc2ccccc2)[C@H](O)C[C@@H]1O`, the Irritation of eyes in assay [1] is recorded as 0.2 arbitrary units. For the same molecule, the “Reduction of IOP” value in assay [2] worked out at 2.9 mmHg.

On to `CCCCC[C@@H](O)CC[C@@H]1[C@@H](C/C=C\CCCC(=O)OC(C)C)[C@@H](O)C[C@H]1O`, for which, in assay [3], the Irritation of eyes amounted to 2.3 arbitrary units. The “Reduction of IOP” value in assay [2] was determined as 0.7 mmHg.

Molecule `CC(C)OC(=O)CCC/C=C\C[C@@H]1[C@@H](CC[C@H](O)CCc2ccccc2)[C@H](O)C[C@@H]1O` showed an Irritation of eyes in assay [3] of 0 arbitrary units. Besides, in assay [2], the “Reduction of IOP” value worked out at 1 mmHg.

The molecule `CC(C)OC(=O)CCC/C=C\C[C@@H]1[C@@H](CC[C@@H](O)CCc2ccccc2)[C@H](O)C[C@@H]1O` [LATANOPROST] showed an Irritation of eyes in assay [3] of 0 arbitrary units. For the same molecule, the “Reduction of IOP” value in assay [2] is recorded as 2.6 mmHg.

`CCCCC[C@H](O)CC[C@@H]1[C@@H](C/C=C\CCCC(=O)OC(C)C)[C@@H](O)C[C@H]1O` displayed an Irritation of eyes in assay [3] of 2.5 arbitrary units. Moreover, the “Reduction of IOP” value in assay [2] is 2.5 mmHg.

In assay [1], `CC(C)OC(=O)CCC/C=C\C[C@@H]1[C@@H](/C=C/[C@H](O)CCc2ccccc2)[C@H](O)C[C@@H]1O` showed an Irritation of eyes of 0 arbitrary units. Also, the “Reduction of IOP” value in assay [2] was 1.9 mmHg.

As for `O=C(O)CCC/C=C\C[C@@H]1[C@@H](CC[C@@H](O)CCc2ccccc2)[C@H](O)C[C@@H]1O` [LATANOPROST ACID], the midpoint of the response in assay [4], the EC50, lay at 0.71 nM.

These data come from ChEMBL document CHEMBL1126813, “Phenyl-substituted prostaglandins: potent and selective antiglaucoma agents” (J Med Chem, 1993).
